Test results reported in patent publication US5447919A, “Sulfated oligosaccharides” (Hoffmann-La Roche Inc., priority 1991, dated 1995).

Key:
[1] = tested on: smooth muscle cells of rats; experiment: Anti-proliferative activity in smooth muscle cell culture (% inhibition of growth after 7 days); assay type: cell-based, rat; settings: for Anti-proliferative activity % inhibition: rat smooth muscle cells, 7 days, test substance 100 mg/ml as printed (100 μl/ml), vs non-inhibited growth
Description: The anti-proliferative activity of the substances was determined in cell cultures as follows: smooth muscle cells of rats (cultivated in DMEM with 10% FCS at 37° C. and 5% CO2) were applied to cell culture plates with a density of 8×10^3 cells/well. After 4 hours, the number of adhered cells was determined and the substances to be tested ([…]) were added. Cells to which test substance was not added served as a comparison and heparin ([…]) served as a positive control. The cells were incubated for 7 days and then the cell number was determined. The antiproliferative activity of the individual substances was calculated as the % inhibition in comparison to non-inhibited growth: [formula] wherein cell number(d=0) =cell number after 4 h […]
cell number(-) =cell number to which test substances was not added, after 7 days. cell number (inhib) =cell number with […] of the test substance

citrated human plasma = experiment: aPTT (activated partial thromboplastin time) Test; assay type: biochemical; settings: concentration which leads to a coagulation time double the control value
Description: (§1) The blood coagulation-ihibiting activity was determined as follows:
aPTT (activated partial thromboplastin time) Test (see Walenga et al., CRC Critical Reviews in Laboratory Sciences 22 (4) 361-389(1986)): 100 μl of citrated human plasma, which contains various concentrations of test compound, are incubated at 37° C. for 8 minutes with 100 μl of Activated Thrombofax (Ortho Diagnostics, Raritan, N.J., U.S.A.). 100 μl of prewarmed 25 mM calcium chloride solution are then added and the coagulation time is measured in a Fibrometer Coagulation Timer (Becton, Dickinson Basle).
(§2) The activity of the test compound is given as the IC50, which is that concentration [μg/ml] which leads to a coagulation time which is double the control value.

Factor Xa = Factor Xa (Bos taurus, UniProt P00743); experiment: anti-Xa Clotting Assay; assay type: biochemical; settings: concentration which leads to a coagulation time double the control value; citrated plasma
Description: as §1
anti-Xa Clotting Assay: 25 μl of citrated plasma having various concentrations of test compound are mixed with 75 μl of Factor Xa (Diagnostic Reagents, Thame, Oxon, Great Britain) diluted 1:100 in 0.63% citrate buffer (pH 7.3) which contains 41 mM imidazole, 82 mM NaCl and 0.1% albumin. After warming to 37° C. for 2 minutes, 200 μl of a 1:1 mixture of Factor X Deficient Plasma (Diagnostic Reagents) and Platelet Substitute (Diagnostic Reagents) are added and the mixture is incubated at 37° C. for 20 seconds. After the addition of 100 μl of pre-warmed 50 mM calcium chloride solution, the coagulation time is measured in a Fibrometer.
as §2

Factor Xa, sequence (P00743 234-492 limits assumed): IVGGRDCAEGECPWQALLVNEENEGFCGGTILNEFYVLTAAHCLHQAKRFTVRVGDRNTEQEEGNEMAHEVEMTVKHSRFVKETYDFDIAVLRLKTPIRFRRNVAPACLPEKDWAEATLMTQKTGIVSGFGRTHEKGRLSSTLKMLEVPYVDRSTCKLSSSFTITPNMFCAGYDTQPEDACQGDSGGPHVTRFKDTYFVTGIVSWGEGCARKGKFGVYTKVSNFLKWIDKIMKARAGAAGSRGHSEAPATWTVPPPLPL
Factor Xa, sequence (P00743 41-180 partner limits assumed): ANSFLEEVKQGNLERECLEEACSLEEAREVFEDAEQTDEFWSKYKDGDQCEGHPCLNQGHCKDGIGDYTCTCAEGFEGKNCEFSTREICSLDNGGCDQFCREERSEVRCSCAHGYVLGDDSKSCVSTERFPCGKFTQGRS

Anti-coagulation activity IC50, Coagulation inhibition aPTT (citrated human plasma)	Anti-coagulation activity IC50, Coagulation inhibition Xa (Factor Xa)	Substance	anti-proliferative activity (in words) ([1]; summary of test results of Table 1)	Anti-proliferative activity % inhibition [1]
		Heparin [reference compound]	anti-proliferatively active	
27 µg/mL	> 1000 µg/mL	sulfated raffinose [Example 1]		41%
150 µg/mL	250 µg/mL	sulfated melezitese [Example 2]		25%
